Reference: paper PMC12797170, “Potent Competitive Inhibitors of Ecto-5′-nucleotidase (CD73) based on 6‑(Het)aryl-7-deazapurine Ribonucleoside 5′‑O‑Bisphosphonates” (ACS Pharmacology & Translational Science, 2025)
pIC50: −log10 of the molar value.

What was measured:
[1] = target: T1, recombinant human CD73 (hCD73) (Homo sapiens, UniProt P21589); assay: CD73 activity assay on recombinant human CD73; type: biochemical; conditions: ΔGexp = RT ln Ki
T1 sequence (P21589 27-574): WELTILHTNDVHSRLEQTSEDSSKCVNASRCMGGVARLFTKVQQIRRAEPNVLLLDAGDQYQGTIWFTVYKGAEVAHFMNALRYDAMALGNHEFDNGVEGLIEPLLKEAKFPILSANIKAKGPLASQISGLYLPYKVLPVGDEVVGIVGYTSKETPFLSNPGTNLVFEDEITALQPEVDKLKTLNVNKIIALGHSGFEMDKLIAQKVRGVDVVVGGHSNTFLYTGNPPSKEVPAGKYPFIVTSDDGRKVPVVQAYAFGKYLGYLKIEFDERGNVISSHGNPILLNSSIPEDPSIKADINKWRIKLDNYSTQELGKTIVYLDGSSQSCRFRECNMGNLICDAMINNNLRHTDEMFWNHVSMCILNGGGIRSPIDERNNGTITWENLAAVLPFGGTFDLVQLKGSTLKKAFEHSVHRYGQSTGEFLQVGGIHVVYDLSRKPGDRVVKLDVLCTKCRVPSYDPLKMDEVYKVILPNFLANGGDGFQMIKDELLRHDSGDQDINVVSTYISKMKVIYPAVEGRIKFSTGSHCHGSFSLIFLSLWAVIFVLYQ

CYP1A2 = target: T2, CYP1A2 (Homo sapiens, UniProt P05177); assay: In vitro CYP450 inhibition assay (Vivid); type: biochemical; conditions: probe fluorogenic Vivid CYP450 substrate (not named)
T2 construct: assay run by Bienta (Enamine Biology Services)
T2 sequence (P05177 2-516 limits assumed): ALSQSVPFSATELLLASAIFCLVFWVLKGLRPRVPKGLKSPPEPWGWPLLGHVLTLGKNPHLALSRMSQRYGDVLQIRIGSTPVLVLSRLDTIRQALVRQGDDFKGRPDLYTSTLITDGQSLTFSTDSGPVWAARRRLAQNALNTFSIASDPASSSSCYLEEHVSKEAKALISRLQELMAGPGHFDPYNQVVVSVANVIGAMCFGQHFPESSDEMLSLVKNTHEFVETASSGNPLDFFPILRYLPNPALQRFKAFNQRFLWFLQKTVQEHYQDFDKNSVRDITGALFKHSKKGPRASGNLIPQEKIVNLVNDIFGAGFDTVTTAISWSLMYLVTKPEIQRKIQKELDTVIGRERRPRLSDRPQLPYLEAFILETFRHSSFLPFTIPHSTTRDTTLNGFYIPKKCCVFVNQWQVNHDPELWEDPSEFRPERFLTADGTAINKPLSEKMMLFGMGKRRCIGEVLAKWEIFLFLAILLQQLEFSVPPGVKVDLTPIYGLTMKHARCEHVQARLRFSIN
Method: (§1) The study was performed by Bienta (Enamine Biology Services). The potential for CYP450 inhibition (isoforms 1A2, 2C9, 2C19, 2D6, and 3A4) was assessed by performing in vitro inhibition studies using fluorogenic CYP450 substrates with the corresponding CYP450 enzymes and NADPH regeneration system (Vivid CYP450 Screening Kits) with some minor changes to the manufacturer’s protocols. The fluorescent signal produced from the reaction is directly proportional to the cytochrome P450 activity. In the cases when tested compounds interfere with the CYP450 enzyme–substrate reaction, the fluorescent signal decreases.
(§2) Briefly, the tested compounds were first dissolved in DMSO at 100× concentration (1 mM) and diluted in buffer to 2.5× concentration (25 μM). […] After 10 min of preincubation, the enzymatic reaction was initiated by the addition of a mix of NADPH and the appropriate CYP450 substrates. The plate was incubated for the desired reaction time (25 min for CYP1A2, CYP2C9, CYP2D6, and CYP3A4; 60 min for CYP2C19) after which Stop Reagent was added and fluorescence measured using SpectraMax Paradigm Multi-Mode Microplate Reader. All test points were performed in quadruplicates at a concentration of 10 μM (1% DMSO).

CYP2C19 = target: T3, CYP2C19 (Homo sapiens, UniProt P33261); assay: In vitro CYP450 inhibition assay (Vivid); type: biochemical; conditions: probe fluorogenic Vivid CYP450 substrate (not named)
T3 construct: assay run by Bienta (Enamine Biology Services)
Method: as §1, §2

CYP2C9 = target: T4, CYP2C9 (Homo sapiens, UniProt P11712); assay: In vitro CYP450 inhibition assay (Vivid); type: biochemical; conditions: probe fluorogenic Vivid CYP450 substrate (not named)
T4 construct: assay run by Bienta (Enamine Biology Services)
Method: as §1, §2

CYP2D6 = target: T5, CYP2D6 (Homo sapiens, UniProt P10635); assay: In vitro CYP450 inhibition assay (Vivid); type: biochemical; conditions: probe fluorogenic Vivid CYP450 substrate (not named)
T5 construct: assay run by Bienta (Enamine Biology Services)
Method: as §1, §2

CYP3A4 = target: T6, CYP3A4 (Homo sapiens, UniProt P08684); assay: In vitro CYP450 inhibition assay (Vivid); type: biochemical; conditions: probe fluorogenic Vivid CYP450 substrate (not named)
T6 construct: assay run by Bienta (Enamine Biology Services)
Method: as §1, §2

CCRF-CEM = assay: In vitro cytotoxic activity; type: cell-based; conditions: Homo sapiens
Method: (§3) All the compounds were also tested for their in vitro cytotoxic activity on a small panel of four cancer cell lines (CCRF-CEM, HepG2, HeLa S3, HL-60) and nonmalignant human dermal fibroblasts (NHDF).

HL-60 = assay: In vitro cytotoxic activity; type: cell-based; conditions: Homo sapiens
Method: as §3

HeLa S3 = assay: In vitro cytotoxic activity; type: cell-based; conditions: Homo sapiens
Method: as §3

HepG2 = assay: In vitro cytotoxic activity; type: cell-based; conditions: Homo sapiens
Method: as §3

[2] = system: nonmalignant human dermal fibroblasts (NHDF); assay: In vitro cytotoxic activity; type: cell-based
Method: as §3

[3] = system: MDA-MB-231 breast cancer cell line; assay: CellTox Green cytotoxicity assay; type: cell-based, human; conditions: 24 h
Method: MDA-MB-231 cells were harvested and counted using an automated cell counter. A total of 2,500 cells per well were seeded in 20 μL of phenol red-free complete RPMI medium into black 384-well plates. Five μL of CD73 inhibitors (final concentration: […]) or 5 μL PBS (negative control) were added to each well, except for wells designed as maximal signal (dead cell) controls. Plates were incubated for 24 h at 37 °C in a humidified CO2 incubator. To generate the maximum signal control, 5 μL of lysis buffer (CellTox Green Cytotoxicity Assay, Promega) was added to the dead cell controls, followed by a 30 min incubation at room temperature. Subsequently, 25 μL/well of CellTox Green Dye (diluted 1:500 in the assay buffer; Promega) was added. Plates were incubated in the dark on an orbital shaker at 500–700 rpm for 15 min. Fluorescence was measured using an Infinite M1000 plate reader (Tecan) with excitation at 485–500 nm and emission at 520–530 nm. Data were analyzed in GraphPad Prism 10.
Figure S2: Effect of CD73 inhibition on the viability of CD73-expressing breast cancer cell line. MDA-MB-231 cells were incubated with 10 µM CD73 inhibitors for 24 hours. Viability was assessed using the CellTox™ Green Cytotoxicity Assay.
± s.d. of technical triplicates (s.d., standard deviation).
(1 picture or pasted object on this page, not shown here)

[4] = Microsomal stability assay, human liver microsomes; type: in vitro ADME; conditions: for Mics (hu) comp remaining 60 min: 10 μM; for microsomal CLint at 10 µM: pooled liver microsomes, pH 7.4, read-out: Mics (hu) CLint

T3 sequence (P33261 whole entry): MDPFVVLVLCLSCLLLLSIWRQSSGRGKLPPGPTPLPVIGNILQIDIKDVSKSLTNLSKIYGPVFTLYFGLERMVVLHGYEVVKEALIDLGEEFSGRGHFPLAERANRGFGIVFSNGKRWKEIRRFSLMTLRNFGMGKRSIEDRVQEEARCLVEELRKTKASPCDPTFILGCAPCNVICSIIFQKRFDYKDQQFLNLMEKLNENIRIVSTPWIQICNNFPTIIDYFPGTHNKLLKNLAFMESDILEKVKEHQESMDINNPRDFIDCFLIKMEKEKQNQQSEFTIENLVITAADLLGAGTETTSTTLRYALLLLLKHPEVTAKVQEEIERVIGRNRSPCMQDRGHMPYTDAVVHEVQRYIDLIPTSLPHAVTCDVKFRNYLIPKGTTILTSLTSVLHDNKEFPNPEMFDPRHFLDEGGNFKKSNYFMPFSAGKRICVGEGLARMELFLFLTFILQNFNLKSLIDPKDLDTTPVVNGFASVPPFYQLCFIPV
T6 sequence (P08684 2-503 limits assumed): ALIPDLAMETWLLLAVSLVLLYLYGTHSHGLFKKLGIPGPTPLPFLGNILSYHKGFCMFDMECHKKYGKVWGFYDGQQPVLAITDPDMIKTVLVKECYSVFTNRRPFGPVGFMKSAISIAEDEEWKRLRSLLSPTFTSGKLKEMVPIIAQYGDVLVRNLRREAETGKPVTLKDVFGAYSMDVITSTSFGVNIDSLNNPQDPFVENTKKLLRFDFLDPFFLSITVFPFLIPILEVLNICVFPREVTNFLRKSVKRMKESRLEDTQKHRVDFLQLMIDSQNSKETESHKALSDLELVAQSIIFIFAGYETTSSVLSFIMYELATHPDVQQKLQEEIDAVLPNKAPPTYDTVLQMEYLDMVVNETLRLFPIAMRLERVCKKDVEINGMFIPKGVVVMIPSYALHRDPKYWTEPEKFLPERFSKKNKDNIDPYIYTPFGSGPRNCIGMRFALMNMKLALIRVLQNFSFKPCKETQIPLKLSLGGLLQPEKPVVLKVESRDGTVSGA
T4 sequence (P11712 whole entry): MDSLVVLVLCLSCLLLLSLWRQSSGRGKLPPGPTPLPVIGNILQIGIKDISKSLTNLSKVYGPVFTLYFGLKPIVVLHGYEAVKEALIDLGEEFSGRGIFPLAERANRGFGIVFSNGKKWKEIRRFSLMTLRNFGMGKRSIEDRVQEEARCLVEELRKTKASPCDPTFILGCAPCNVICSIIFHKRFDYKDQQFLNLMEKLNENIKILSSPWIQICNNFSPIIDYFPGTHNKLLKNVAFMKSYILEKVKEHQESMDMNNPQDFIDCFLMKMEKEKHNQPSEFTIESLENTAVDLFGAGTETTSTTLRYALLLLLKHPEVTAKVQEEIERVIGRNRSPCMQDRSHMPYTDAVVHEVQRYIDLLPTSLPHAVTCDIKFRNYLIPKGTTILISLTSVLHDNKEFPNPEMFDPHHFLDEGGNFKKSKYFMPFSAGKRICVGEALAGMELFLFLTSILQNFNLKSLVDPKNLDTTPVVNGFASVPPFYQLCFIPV
T5 sequence (P10635 whole entry): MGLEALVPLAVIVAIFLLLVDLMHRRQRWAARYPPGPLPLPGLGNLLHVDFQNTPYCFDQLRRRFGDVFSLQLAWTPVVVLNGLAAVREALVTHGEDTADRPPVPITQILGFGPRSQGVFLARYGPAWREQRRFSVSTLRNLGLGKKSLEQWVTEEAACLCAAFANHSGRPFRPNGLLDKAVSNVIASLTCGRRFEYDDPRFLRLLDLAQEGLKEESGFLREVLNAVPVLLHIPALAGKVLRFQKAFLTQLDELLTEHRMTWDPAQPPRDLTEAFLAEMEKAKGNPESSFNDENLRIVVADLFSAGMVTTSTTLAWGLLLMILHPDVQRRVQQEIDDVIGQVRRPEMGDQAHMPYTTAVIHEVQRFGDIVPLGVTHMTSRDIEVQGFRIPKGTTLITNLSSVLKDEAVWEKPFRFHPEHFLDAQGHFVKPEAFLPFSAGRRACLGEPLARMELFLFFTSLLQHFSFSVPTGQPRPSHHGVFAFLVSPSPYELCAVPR

dG_exp, experimental binding free energy [1]	inhibition at 25 min, 10 µM (CYP1A2)	inhibition at 60 min, 10 µM (CYP2C19)	inhibition at 25 min, 10 µM (CYP2C9)	inhibition at 25 min, 10 µM (CYP2D6)	inhibition at 25 min, 10 µM (CYP3A4)	Mics (hu) comp remaining 60 min [4]	microsomal CLint at 10 µM [4]	Structure (SMILES)	pIC50 (CCRF-CEM)	pIC50 (HL-60)	pIC50 (HeLa S3)	pIC50 (HepG2)	pIC50 [2]	in vitro cytotoxicity against MDA-MB-231 [3]
–15.9 kcal/mol	0%	10%	15%	-13%	-8%	101%	< 1 µL/min/mg	O=P(O)(O)CP(=O)(O)OC[C@H]1O[C@@H](n2ccc3c(-c4cccc5c4CCCC5)nc(Cl)nc32)[C@H](O)[C@@H]1O [7B.12]	< 5.00	< 5.00	< 5.00	< 5.00	< 5.00	nontoxic
–16.3 kcal/mol	-17%	3%	21%	6%	-23%	124%	< 1 µL/min/mg	O=P(O)(O)CP(=O)(O)OC[C@H]1O[C@@H](n2ccc3c(-c4ccc5c(c4)CCCC5)nc(Cl)nc32)[C@H](O)[C@@H]1O [7B.23]	< 5.00	5.24	< 5.00	5.03	< 5.00	nontoxic
–16.1 kcal/mol	-4%	-7%	11%	-12%	-23%	104%	< 1 µL/min/mg	O=P(O)(O)CP(=O)(O)OC[C@H]1O[C@@H](n2ccc3c(-c4ccc5c(c4)CCCC5)nc(I)nc32)[C@H](O)[C@@H]1O [27H.23, [(5-{[2-Iodo-4-(5,6,7,8-tetrahydronaphthalen-2-yl)-7H-pyrrolo[2,3-d]pyrimidin-7-yl]-β-D-ribofuranosyl}oxy)phosphonomethyl]phosphonic Acid]	< 5.00	< 5.00	< 5.00	< 5.00	< 5.00	nontoxic

The next lines start with the compound.

Structure (SMILES)	dG_exp, experimental binding free energy [1]	inhibition at 25 min, 10 µM (CYP1A2)	inhibition at 60 min, 10 µM (CYP2C19)	inhibition at 25 min, 10 µM (CYP2C9)	inhibition at 25 min, 10 µM (CYP2D6)	inhibition at 25 min, 10 µM (CYP3A4)	Mics (hu) comp remaining 60 min [4]	microsomal CLint at 10 µM [4]	pIC50 (CCRF-CEM)	pIC50 (HL-60)	pIC50 (HeLa S3)	pIC50 (HepG2)	pIC50 [2]	in vitro cytotoxicity against MDA-MB-231 [3]
O=P(O)(O)CP(=O)(O)OC[C@H]1O[C@@H](n2ccc3c(-c4ccc5ccccc5c4)ncnc32)[C@H](O)[C@@H]1O [4A.7]	–13.4 kcal/mol	7%	10%	23%	-17%	-7%			< 5.00	< 5.00	< 5.00	< 5.00	< 5.00	nontoxic
O=P(O)(O)CP(=O)(O)OC[C@H]1O[C@@H](n2ccc3c(-c4cccc5ccncc45)ncnc32)[C@H](O)[C@@H]1O [4A.18]	–14.1 kcal/mol	7%	3%	11%	-10%	-3%	105%	< 1 µL/min/mg	< 5.00	< 5.00	< 5.00	< 5.00	< 5.00	nontoxic
O=P(O)(O)CP(=O)(O)OC[C@H]1O[C@@H](n2ccc3c(-c4ccc(F)c5ccccc45)nc(Cl)nc32)[C@H](O)[C@@H]1O [7B.28]	–16.6 kcal/mol	9%	22%	24%	-6%	9%	95%	2 µL/min/mg	< 5.00	< 5.00	< 5.00	< 5.00	< 5.00	nontoxic
Cc1nc(-c2cccc3ccccc23)c2ccn([C@@H]3O[C@H](COP(=O)(O)CP(=O)(O)O)[C@@H](O)[C@H]3O)c2n1 [18E.6]	–13.9 kcal/mol	8%	-20%	12%	-18%	0%	98%	1 µL/min/mg	< 5.00	< 5.00	< 5.00	< 5.00	< 5.00	nontoxic
Cc1nc(-c2ccc3ccccc3c2)c2ccn([C@@H]3O[C@H](COP(=O)(O)CP(=O)(O)O)[C@@H](O)[C@H]3O)c2n1 [18E.7]	–14.6 kcal/mol						86%	5 µL/min/mg	< 5.00	< 5.00	< 5.00	< 5.00	< 5.00	nontoxic
